Here are results for three molecules from patent publication US9771562B2, “Method for culture of human and mouse prostate organoids and uses thereof” (THE TRUSTEES OF COLUMBIA UNIVERSITY IN THE CITY OF NEW YORK, priority 2012, dated 2017).

Each structure is given as a SMILES string. Values joined by “and” are separate entries in the source; they are usually repeats but may differ in a detail not shown here. Equal values may be shown once. Read-outs that look alike come from different tables or passages of the source.

Assay [1] has as its system organoids from Nkx3.1^CreERT2/+; Pten^flox/flox; R26R-YFP/+ (NP) mice. The assay can be described thus: Drug treatment of NP tumor organoids: efficiency of organoid formation. The class given is cell-based, mouse. The settings on record: 1 nM MK-8669; for Frequency (efficiency of organoid formation), Average: average of 3 wells; for Frequency (efficiency of organoid formation), Average / Total organoids counted / Frequency (efficiency of organoid formation): 1000 cells/well, 100 nM DHT control, or without DHT: 10 μM enzalutamide; for Total organoids counted / Frequency (efficiency of organoid formation): single wells, counted after 8 days; for Frequency (efficiency of organoid formation): third passage, embedded in Matrigel; for effect on organoid formation: treatment cultures without DHT, 10 μM enzalutamide. The protocol: Next it was determined whether tumor organoids could be utilized to assess drug response, using organoids from Nkx3.1^CreERT2/+; Pten^flox/flox; R26R-YFP/+ (NP) mice, which were previously used to analyze therapeutic response in vivo [48]. […] To assess therapeutic response, YFP-positive prostate cells were isolated from tamoxifen-induced NP mice for organoid culture, and subsequently dissociated organoids at the third passage to single cell suspensions, followed by plating at 1,000 cells/well embedded within Matrigel/culture medium. Control cultures were established in the presence of DHT, while treatment cultures were established without DHT.
For serial passaging experiments, organoids were passaged at a 1:4 dilution every 1-2 weeks with 0.25% trypsin for 5 minutes at 37° C., followed by mechanical dissociation to nearly single-cell suspensions. Organoids were frozen in complete media with 50% FBS and 10% DMSO. The efficiency of organoid formation was calculated by averaging the number of organoids visible in each well after 7 days of growth using a 10× objective. For statistical analyses, efficiency percentages were arcsin converted to perform unpaired two-tailed Student's t-tests.
The embedding method was used to culture organoids for drug treatment experiments. […] 40 μl of the resulting cell suspension containing 500-3,000 dissociated cells were mixed with 60 μl of Matrigel, and the mixture pipetted around the rim of wells in a 24 well plate. The mixture was allowed to solidify for 30 minutes at 37° C., prior to addition of 400 μl organoid culture medium to each well, with or without supplementation with 100 nm DHT in the presence or absence of drugs. The culture medium was changed every other day, and organoids were counted after 8 days. Drugs were dissolved in DMSO to generate a final concentration of 0.1% in all drug-treated groups. Drug concentrations were as follows: 100 nM DHT, no additions, 0.1% DMSO, 10 μM enzalutamide (provided by Charles Sawyers, Memorial Sloan-Kettering Cancer Center), 1 nM MK-8669 (provided by Cory Abate-Shen, Columbia University Medical Center).

The test system of assay [2] is organoids established from normal prostate epithelium. Particulars: absence of DHT versus presence of DHT, after passaging. The protocol: (§1) To examine the effects of androgen-deprivation, organoids established from normal prostate epithelium were cultured and passaged in the presence or absence of DHT. […] To assess the molecular response to androgen-deprivation, quantitative RT-PCR (qPCR) analysis of the expression of several known AR-regulated genes was performed at passage 1.

The subject of assay [3] is AR. The protocol: as §1
In assay [4] the test system is AR. The settings on record: NPK-CARN organoids.
Description: In particular, Nkx3.1^CreERT2/+; Pten^flox/flox; Kras^LSL-G12D/+; R26R-YFP/+ mice (termed NPK) were castrated and induced with tamoxifen, so that combined Pten deletion, Kras^G12D activation, and YFP expression occurred specifically in CARNs (FIG. 33A). Transformed lineage-marked CARNs were isolated by flow cytometry on the basis of their YFP expression, and used for organoid culture.
For immunostaining, sections underwent antigen-retrieval by boiling in citrate acid-based antigen unmasking solution (Vector Labs) for 10 min. Primary antibodies were applied to sections and incubated at 4° C. overnight in a humidified chamber. Alexa Fluors (Life Technologies) were used for secondary antibodies. Tyramide amplification (Life Technologies) or ABC Elite (Vector Labs) kits were used for signal detection.
A further assay relates to AR-regulated genes. Particulars: after DHT withdrawal, passage 1. The protocol:
as §1
For RNA extraction, 4-6 wells of organoids were pooled, pelleted, and dissolved in Trizol reagent prior to processing by the MagMAX 96 Total RNA Isolation Kit (Ambion, Life Technologies). 300-500 ng of RNA was used for cDNA synthesis using the Superscript First Strand Synthesis System (Invitrogen). Quantitative real-time PCR was carried out using SYBR green master mix reagent (QIAGEN) in the Realplex2 instrument (Eppendorf). cDNA samples were diluted 1:5 to 1:10 for all analyses, which were performed in triplicate. Expression values were obtained using the ΔΔCT method and normalized to GAPDH expression; average values are shown as the mean±standard deviation (SD).

`CNC(=O)c1ccc(N2C(=S)N(c3ccc(C#N)c(C(F)(F)F)c3)C(=O)C2(C)C)cc1F` [Enzalutamide, enzalutamide]: in assay [1], the “Frequency (efficiency of organoid formation), Average” value (shortened to “Frequency … Average”) was 14.9%; the Total organoids counted is 134 and 163 and 150; the “Frequency (efficiency of organoid formation)” value was 13.4% and 16.3% and 15.0%; the “effect on organoid formation” value was “minimal effects”.
As for `C[C@]12CCC(=O)C[C@@H]1CC[C@@H]1[C@@H]2CC[C@]2(C)[C@@H](O)CC[C@@H]12` [DHT, dihydrotestosterone], the organoid size result in assay [2] was “reduced in size”. Moreover, the AR immunostaining entry with AR [3] (in the absence of DHT) was “weaker and mostly cytoplasmic”. The AR immunostaining result in the assay on AR [3] (in the presence of DHT) was “nuclear”. Besides, in the assay with AR [4] (in the absence of DHT), the AR localisation result is listed as “mostly cytoplasmic AR”. The AR localisation entry with AR [4] (in the presence of DHT) is “nuclear AR”. Also, in assay [1], the “Frequency … Average” value is given as 17.4%; the Total organoids counted was 166 and 194 and 162; the “Frequency (efficiency of organoid formation)” value is 16.6% and 19.4% and 16.2%. For the same molecule, in the assay with AR-regulated genes, the “expression of Fkbp5, Mme, and Psca” value is listed as “down-regulated”; the “expression of Igfbp3” value is reported as “up-regulated”.
For the molecule `CO[C@H]1C[C@@H]2CC[C@@H](C)[C@@](O)(O2)C(=O)C(=O)N2CCCC[C@H]2C(=O)O[C@H]([C@H](C)C[C@@H]2CC[C@@H](OP(C)(C)=O)[C@H](OC)C2)CC(=O)[C@H](C)/C=C(\C)[C@@H](O)[C@@H](OC)C(=O)[C@H](C)C[C@H](C)/C=C/C=C/C=C/1C` [MK-8669, ridaforolimus], in assay [1], the “Frequency … Average” value is reported as 15.9%; the Total organoids counted is 179 and 154 and 145; the “Frequency (efficiency of organoid formation)” value was 17.9% and 15.4% and 14.5%; the “effect on organoid formation” value is “minimal effects”.
